Type in all cases: cell-based, rat
The subject of experiment [1] is RADSC-1 cells. In words: LDL-uptake of ADSC grown in subtraction or addition EGM2/EBM2 media. As to conditions: for ADSC's LDL-uptake ability on omission of the factor from EGM2: one week in subtracted EGM2 medium; for ADSC's LDL-uptake ability in EBM2 supplemented with the factor: one week in addition medium. The text has this: Each partially supplemented EGM2 is indicated by the omitted factor; for example, “-FGF” denotes EGM2 without FGF2. Experiments were repeated 3 times.
Experiments were repeated 3 times.
EGM2 medium is supplied by the manufacturer in the form of a basal medium (EBM2) and individual vials of supplemental factors. […] Specifically, we prepared “subtraction” EGM2 media by omitting one supplemental factor at a time.

The subject of experiment [2] is RADSC-1 cells. As to the kind of experiment: Effect of FGFR inhibitor on ADSC endothelial differentiation (LDL-uptake). The note with it: EGM2 or FGF2/vitamin C-supplemented EBM2, in the presence of PD173074. The procedure:
RADSC-1 cells were grown in EGM2 or EBM2 supplemented with FGF2 and vitamin C in the presence or absence of FGFR inhibitor PD173074. The cells were then assayed for LDL-uptake. […] RADSC-1 cells were also grown in VEGF/vitamin C-supplemented EBM2 for the purpose of excluding the involvement of VEGF signaling, as PD173074 is known to have a weak inhibitory effect on VEGF receptor. Experiments were repeated 3 times.

A further experiment relates to ADSC. As to the kind of experiment: EdU labeling of ADSC in vitro. How it is done: FIG. 9 depicts dosage effect. EdU was added to ADSC at 0, 10, 20, and 50 μM. Cellular location was identified by DAPI staining of the nucleus (which would be blue if color photos were used). EdU was detected by Alexa 594 (which would be red if color photos were used).
FIG. 10 show the results of a time-course study. ADSC were labeled with 10 μM EdU and then split at 1 day, 4 days, 7 days, 14 days, and 21 days. […] Higher magnification (1000×) of cells at day 21 is shown in panel C.
ADSCs were grown on glass coverslips in DMEM supplemented with 10% bovine calf serum, penicillin, and streptomycin. For dosage effect, EdU was added to the culture media at 0, 10, 20 and 50 μM. Twenty-four hours later, cells were washed with PBS followed by addition of regular culture media (FIG. 9). For time-course study, ADSC were labeled with 10 μM EdU and then split at 1 day, 4 days, 7 days, 14 days and 21 days (FIG. 10).
After methanol fixation, cells were washed twice with PBS and then incubated in 3% BSA in PBS followed by 0.5% Triton® X-100 in PBS for 20 minutes at room temperature. The cells were then incubated with freshly made Click-it reaction cocktail (Invitrogen) for 30 minutes at room temperature in the dark. Cells were counterstained with DAPI, mounted in standard mounting media and imaged by fluorescence microscopy.

Take `C[C@]12CCC(=O)C=C1CC[C@@H]1[C@@H]2[C@@H](O)C[C@@]2(C)[C@H]1CC[C@]2(O)C(=O)CO` [hydrocortisone]: the “ADSC's LDL-uptake ability on omission of the factor from EGM2” value (“ADSC's LDL-uptake ability on omission” below) with RADSC-1 cells [1] is on record as “essentially no effect”.
For the compound heparin, in the experiment with RADSC-1 cells [1], the “ADSC's LDL-uptake ability on omission” value is listed as “essentially no effect”.
Regarding “FGF2: growth factor, supplemental factor of EGM2 medium”, in the experiment on RADSC-1 cells [1], the “ADSC's LDL-uptake ability in EBM2 supplemented with the factor” value is “still effective, albeit at a reduced level” and the “ADSC's LDL-uptake ability on omission” value is “greatly diminished”.
With VEGF, in the experiment on RADSC-1 cells [1], the “ADSC's LDL-uptake ability on omission” value was “essentially no effect”.
Consider `CCN(CC)CCCCNc1ncc2cc(-c3cc(OC)cc(OC)c3)c(NC(=O)NC(C)(C)C)nc2n1` [PD173074], for which the “acquisition of LDL-uptake ability” value in the experiment with RADSC-1 cells [2] was “unable to do so”.
In the case of “EGF: growth factor, supplemental factor of EGM2 medium”, the “ADSC's LDL-uptake ability on omission” value in the experiment with RADSC-1 cells [1] was “essentially no effect”.
Turning to `O=C1O[C@H]([C@@H](O)CO)C(O)=C1O` [vitamin C], in the experiment on RADSC-1 cells [1], the “ADSC's LDL-uptake ability in EBM2 supplemented with the factor” value was “still somewhat effective, but at a much reduced level” and the “ADSC's LDL-uptake ability on omission” value is recorded as “greatly diminished”.
Take `C#Cc1cn([C@H]2C[C@H](O)[C@@H](CO)O2)c(=O)[nH]c1=O` [EdU, 5-ethynyl-2-deoxyuridine]: the “EdU signal in the positively labeled cells” value in the experiment on ADSC (10 μM EdU, 1 to 21 days, P<0.01) is “decreased with time”. Moreover, in the experiment with ADSC (EdU 10, 20, 50 μM, regardless of concentration), the “cells EdU-labeled” value is listed as “approximately 50%”.

(Values after patent US10426800B2, “Adipose tissue-derived stem cells for veterinary use” (CELL4VET CORPORATION, priority 2008, dated 2019).)
